The text below walks through data of US20230134428A1, “FUSED HETEROARYL COMPOUNDS, AND METHODS THEREOF FOR TREATING DISEASES, DISORDERS, AND CONDITIONS RELATING TO ABERRANT FUNCTION OF A SODIUM CHANNEL” (Praxis Precision Medicines, Inc., priority 2016, published 2023).

T1 sequence (Q9UQD0 whole entry): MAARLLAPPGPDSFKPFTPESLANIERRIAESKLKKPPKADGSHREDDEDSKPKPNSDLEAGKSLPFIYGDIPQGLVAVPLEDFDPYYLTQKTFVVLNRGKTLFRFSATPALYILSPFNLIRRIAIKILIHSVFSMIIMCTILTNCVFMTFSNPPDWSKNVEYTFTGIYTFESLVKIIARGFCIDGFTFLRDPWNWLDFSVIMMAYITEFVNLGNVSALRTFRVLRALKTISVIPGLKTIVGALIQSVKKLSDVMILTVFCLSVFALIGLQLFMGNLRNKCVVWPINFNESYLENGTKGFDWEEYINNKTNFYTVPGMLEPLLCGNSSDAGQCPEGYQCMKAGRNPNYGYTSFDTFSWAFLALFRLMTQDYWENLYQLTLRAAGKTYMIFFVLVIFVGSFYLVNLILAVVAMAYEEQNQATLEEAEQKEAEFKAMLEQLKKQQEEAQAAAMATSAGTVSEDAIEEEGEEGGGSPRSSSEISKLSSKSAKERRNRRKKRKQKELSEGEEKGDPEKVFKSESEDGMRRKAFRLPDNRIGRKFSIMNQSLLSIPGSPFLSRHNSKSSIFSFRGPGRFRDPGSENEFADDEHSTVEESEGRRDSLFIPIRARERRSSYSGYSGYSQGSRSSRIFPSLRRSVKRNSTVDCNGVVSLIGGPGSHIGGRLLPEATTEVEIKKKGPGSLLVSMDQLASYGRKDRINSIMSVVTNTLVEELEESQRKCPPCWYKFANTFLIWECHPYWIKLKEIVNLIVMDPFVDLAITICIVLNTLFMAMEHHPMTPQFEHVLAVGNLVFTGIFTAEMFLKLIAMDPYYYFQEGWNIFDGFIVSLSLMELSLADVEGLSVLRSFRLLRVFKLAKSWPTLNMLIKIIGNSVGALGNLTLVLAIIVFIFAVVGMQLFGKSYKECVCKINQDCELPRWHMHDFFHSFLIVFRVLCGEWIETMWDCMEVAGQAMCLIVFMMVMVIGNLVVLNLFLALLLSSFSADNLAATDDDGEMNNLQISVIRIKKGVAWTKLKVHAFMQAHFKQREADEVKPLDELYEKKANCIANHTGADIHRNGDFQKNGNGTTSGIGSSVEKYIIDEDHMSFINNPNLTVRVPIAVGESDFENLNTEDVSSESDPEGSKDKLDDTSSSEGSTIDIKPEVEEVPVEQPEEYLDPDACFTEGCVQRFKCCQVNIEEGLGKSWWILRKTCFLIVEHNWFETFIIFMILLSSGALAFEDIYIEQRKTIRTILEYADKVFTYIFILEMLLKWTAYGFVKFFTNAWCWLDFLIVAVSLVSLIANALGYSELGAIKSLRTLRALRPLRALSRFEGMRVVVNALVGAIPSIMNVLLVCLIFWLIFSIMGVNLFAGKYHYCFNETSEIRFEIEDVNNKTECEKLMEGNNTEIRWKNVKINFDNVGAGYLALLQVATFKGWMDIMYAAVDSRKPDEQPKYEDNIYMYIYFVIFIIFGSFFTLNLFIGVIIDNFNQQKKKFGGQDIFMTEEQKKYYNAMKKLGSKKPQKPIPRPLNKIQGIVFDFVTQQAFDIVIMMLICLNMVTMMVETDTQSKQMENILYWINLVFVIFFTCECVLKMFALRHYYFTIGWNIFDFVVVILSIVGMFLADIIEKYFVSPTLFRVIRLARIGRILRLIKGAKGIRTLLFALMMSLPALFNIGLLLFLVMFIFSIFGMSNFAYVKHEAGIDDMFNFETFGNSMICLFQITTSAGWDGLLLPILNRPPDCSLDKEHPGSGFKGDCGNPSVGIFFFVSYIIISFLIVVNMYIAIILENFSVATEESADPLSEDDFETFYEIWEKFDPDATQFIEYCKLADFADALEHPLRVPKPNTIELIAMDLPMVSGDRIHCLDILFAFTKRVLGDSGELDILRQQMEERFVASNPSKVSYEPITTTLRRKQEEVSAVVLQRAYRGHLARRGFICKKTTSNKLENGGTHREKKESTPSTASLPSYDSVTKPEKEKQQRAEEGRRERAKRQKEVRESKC

One test has as its target T1, human NaV1.6 (hNaV1.6) (Homo sapiens, UniProt Q9UQD0).
T1 construct: expressed in transfected cells; host or cells: HEK-293 (G418 selection)
Briefly: Modulation of late sodium current (INaL), PatchXpress electrophysiology. The format is cell-based. Particulars: HEK293, read-out: INaL v1.6 (1 µM, % Inhibition). On the procedure:
Functional characterization of exemplary compounds to modulate INaL expressed by the NaV1.6 voltage-gated sodium channel was accomplished using the PatchXpressTM high throughput electrophysiology platform (Molecular Devices, Sunnyvale, CA). HEK-293 cells expressing recombinant, human NaV1.6 (hNaV1.6)were grown in DMEM/high-glucose Dulbecco's modified, 10% FBS, 2 mM sodium pyruvate, 10 mM HEPES and 400 μg/mL G418. Cells were grown to 50% - 80% confluency prior to harvesting. Trypsinized cells were washed, allowed to recover for 1 hour and then resuspended in extracellular recording solution at a concentration of 1 × 10^6 cells/ml. The onboard liquid handling facility of the PatchXpress was used for dispensing cells and applying test compounds. Nav late currents were evoked by the application of 300 nM ATX-II. […] INaL amplitude and stability were determined by analyzing the mean current amplitude over the final 20 ms of […] pulse. […] Percent steady-state inhibition of INaL was calculated as: [([…])]*100, where INaL_compound and INaL _control represent INaL recorded in the presence or absence of compound, respectively.
With `COCc1cc(OC(F)(F)F)ccc1-c1cnc2cnc(C(F)(F)F)n2c1` [Compound 12], the inhibition (commonly the percentage by which the read-out fell short of the control) at 1 µM was 30 to 70%.
Same read-out and setting: the same measure for `FC(F)(F)c1ccc(-c2cnc3cnc(C(F)(F)F)n3c2)cc1` [Compound 18]: under 30%.
Same read-out and setting: then `N#Cc1nc(C(F)(F)F)n2cc(-c3ccc(OCC(F)(F)F)nc3)ccc12` [Compound 19], with over 70%; and `N#Cc1nc(C(F)(F)F)n2cc(-c3ccc(C4(C#N)CC4)cc3)ccc12` [Compound 20], with under 30%.
Still for that read-out and setting: then `N#Cc1nc(C(F)F)n2cc(-c3ccc(OC(F)(F)F)cc3)ccc12` [Compound 21], with 30 to 70%; and `Fc1cc(-c2cn3c(C(F)(F)F)ncc3cn2)cnc1OCC(F)(F)F` [Compound 23, 6-[5-fluoro-6-(2,2,2-trifluoroethoxy)-3-pyridyl]-3-(trifluoromethyl)imidazo[1,5-a]pyrazine], with 30 to 70%.
With `FC1(F)CC(c2ncc3ncc(-c4ccc(OC(F)(F)F)cc4)cn23)C1` [Compound 24], the inhibition at 1 µM is under 30%.

The test is the same for the next values; noted with them: HEK293; 1 µM compound; HEK-293 cells expressing hNaV1.6; late current evoked by 300 nM ATX-II; read-out: INaL v1.6 (1 µM, % Inhibition).
Turning to `COc1cc(OC(F)(F)F)ccc1-c1ccc2cnc(C(F)(F)F)n2c1` [Compound 1], the inhibition at 1 µM is over 70%.
The same measure, in the same setting: the same measure for `FC(F)(F)COc1ccc(-c2ccc3cnc(C(F)(F)F)n3c2)cn1` [Compound 2]: 30 to 70%; for `COC(C)(C)c1ccc(-c2ccc3cnc(C(F)(F)F)n3c2)cc1` [Compound 3]: 30 to 70%; for `N#CC1(c2ccc(-c3ccc4cnc(C(F)(F)F)n4c3)cc2)CC1` [Compound 4]: 30 to 70%.
Take `FC(F)(F)Oc1ccc(-c2cn3c(C(F)(F)F)ncc3cn2)cc1` [Compound 7]: the inhibition at 1 µM is 30 to 70%.
Still for that read-out and setting: the same measure for `FC(F)(F)Oc1ccc(-c2cnc3cnc(C(F)(F)F)n3c2)cc1` [Compound 8]: 30 to 70%; for `FC(F)(F)Oc1ccc(-c2ccc3cnc(C(F)(F)F)n3n2)cc1` [Compound 9]: 30 to 70%.
Still for that read-out and setting: then `FC(F)c1ncc2ncc(-c3ccc(OC(F)(F)F)cc3)cn12` [Compound 10], with under 30%; and `N#Cc1nc(C(F)(F)F)n2cc(-c3ccc(OC(F)(F)F)cc3)cnc12` [Compound 11], with under 30%; and `N#CC1(c2ccc(-c3cnc4cnc(C(F)(F)F)n4c3)cc2)CC1` [Compound 13], with under 30%.
Still for that read-out and setting: the same measure for `Cc1nc(C(F)(F)F)n2cc(-c3ccc(OC(F)(F)F)cc3)cnc12` [Compound 14]: 30 to 70%; for `COCc1cc(OC(F)(F)F)ccc1-c1cn2c(C(F)(F)F)ncc2cn1` [Compound 15]: over 70%; for `COCc1cc(OC(F)(F)F)ccc1-c1ccc2c(C#N)nc(C(F)(F)F)n2c1` [Compound 16]: over 70%.
As to `COc1cc(C2(C#N)CC2)ccc1-c1cnc2cnc(C(F)(F)F)n2c1` [Compound 17], the inhibition at 1 µM was under 30%.
Still for that read-out and setting: then `N#CC1(c2ccc(-c3cn4c(C(F)(F)F)ncc4cn3)cc2)CC1` [Compound 22], with 30 to 70%; and `N#Cc1nc(C(F)(F)F)n2nc(-c3ccc(OC(F)(F)F)cc3)ccc12` [Compound 25], with under 30%; and `FC(F)(F)Oc1ccc(-c2ccc3cnc(C4CC4(F)F)n3c2)cc1` (stereo not shown) [Compound 26], with 30 to 70%.
Take `N#Cc1nc(C(F)(F)F)n2cc(-c3ccc(OC(F)(F)F)cc3)ncc12` [Compound 27]: the inhibition at 1 µM is over 70%.
As for `COCc1cc(OC(F)(F)F)ccc1-c1cn2c(C(F)(F)F)nc(C#N)c2cn1` [Compound 28], the inhibition at 1 µM was over 70%.
On the same count and under the same terms, the same measure for `N#Cc1nc(C(F)(F)F)n2cc(-c3ccc(C(F)(F)F)cc3)ncc12` [Compound 29]: over 70%; for `N#Cc1nc(C2CC2(F)F)n2cc(-c3ccc(OC(F)(F)F)cc3)ccc12` (stereo not shown) [Compound 30]: over 70%.
Still for that read-out and setting: then `N#Cc1nc(C(F)(F)F)n2cc(-c3cnc(OCC(F)(F)F)c(F)c3)ncc12` [Compound 31, 6-[5-fluoro-6-(2,2,2-trifluoroethoxy)-3-pyridyl]-3-(trifluoromethyl)imidazo[1,5-a]pyrazine-1-carbonitrile], with 30 to 70%; and `Fc1cc(-c2cnc3cnc(C(F)(F)F)n3c2)cnc1OCC(F)(F)F` [Compound 32, 3-[5-fluoro-6-(2,2,2-trifluoroethoxy)-3-pyridyl]-6-(trifluoromethyl)imidazo[1,5-a]pyrimidine], with 30 to 70%.
On the same count and under the same terms, the same measure for `N#Cc1nc(C(F)(F)F)n2cc(-c3cnc(OCC(F)(F)F)c(F)c3)ccc12` [Compound 33, 6-[5-fluoro-6-(2,2,2-trifluoroethoxy)-3-pyridyl]-3-(trifluoromethyl)imidazo[1,5-a]pyridine-1-carbonitrile]: over 70%.
